Assay type in all cases: biochemical
Experiment [1] deals with alkaline phosphatase (AP). Briefly: Chemiluminescent detection of alkaline phosphatase with acridan phosphate and surfactant enhancer. As to conditions: for Rel. (S/B normalized to the results obtained with no enhancer) / S/B (ratio of light intensities with AP and with no enzyme): acridan 1 with 10^−16 mol of AP, each surfactant at the concentration producing the greatest enhancement.

The subject of experiment [2] is alkaline phosphatase (AP). Briefly: Chemiluminescent detection of alkaline phosphatase with acridan phosphate and cationic aromatic compound (CAC). As to conditions: for S at 36 min (plateau intensity): 21 mM CAC in DMSO diluted 1:1000 into compound 5 in 0.1 M tris pH 8.8.
The subject of the next experiment is acid phosphatase (AcP). Briefly: Chemiluminescent detection of acid phosphatase and inhibition by tartrate. Here is the method:
The quenching of emission was not due to a reduction of the pH since addition of 10 μL of citrate buffer caused only a 25% reduction in light intensity.

Setting [3] is: 4×10^−16 mol AP, room temperature.

In the case of “1-trioctylphosphoniummethyl-4-tributylammonium-methylbenzene, mixed bromide chloride salt [Surfactant G]”, in experiment [1], the “Rel. (S/B normalized to the results obtained with no enhancer)” value came out at 4.5; the “S/B (ratio of light intensities with AP and with no enzyme)” value was found to be 63.

Consider “9-(2,6-Dimethylphenylthiophosphoryloxymethylidene)-10-methylacridan. disodium salt [Compound 9]”, for which the “S at 36 min (plateau intensity)” value in experiment [2] (setting [3]) amounted to 781.

As to “9-(2′,2′,2′-Trifluoroethylthiophosphoryloxymethylidene)-10-methylacridan, disodium salt [Compound 11]”, the “S at 36 min (plateau intensity)” value in experiment [2] (setting [3]) amounted to 9.3.

“9-(3,5-Dimethylphenoxy)phohosphoryloxymethylidene)-10-methylacridan. disodium salt [Compound 2]”: the “S at 36 min (plateau intensity)” value in experiment [2] (setting [3]) turned out to be 45.3.

“9-(4-Fluorophenylthiophosphoryloxymethylidene)-10-methylacridan, disodium salt [Compound 7]”: the “time to stable plateau of chemiluminescence intensity” value in experiment [2] (0.66 mM 7, 6.4 μM lucigenin, SDS, Na2SO3, TWEEN 20, tris pH 8.8, 8×10^−16 mol AP, room temperature) is “under 5 sec”. Moreover, the “S at 36 min (plateau intensity)” value in experiment [2] (setting [3]) amounted to 61.6.

For “9-(4-Methoxyphenylthiophosphoryloxymethylidene)-10-methylacridan, disodium salt [Compound 8]”, the “S at 36 min (plateau intensity)” value in experiment [2] (setting [3]) was 19.1.

On to “9-(Phenylthiophosphoryloxymethylidene)-2,7-difluoro-10-methylacridan, disodium salt [Compound 10]”, for which, in experiment [2] (setting [3]), the “S at 36 min (plateau intensity)” value was determined as 21.1.

As for `C[n+]1c2ccccc2c(-c2c3ccccc3[n+](C)c3ccccc23)c2ccccc21.O=[N+]([O-])[O-].O=[N+]([O-])[O-]` [CAC 1, N,N′-dimethylbiacridinium dinitrate, reference compound], in experiment [2] (6.4 μM lucigenin, 0.66 mM 5, 0.1 M tris pH 8.8, 8×10^−16 mol AP, 25° C.), the “effect of lucigenin on light intensity” value is “much higher light intensity”. Moreover, the “signal (S) versus control without lucigenin” value in experiment [2] (6.4 mM to 6.4 nM lucigenin, 0.66 mM 5, tris pH 8.8, 4×10^−16 mol AP, 3.5 min, room temperature) is “higher signal (S) than the control”.

For the compound `O=S([O-])[O-].[Na+].[Na+]` [Na2SO3, sodium sulfite], the “background signal (B) in the absence of AP versus control” value in experiment [2] (Na2SO3 1.0 mg/mL to 1.0 μg/mL in Reagent A) is “lower background signal (B)”. Also, the “signal (S) versus control” value in experiment [2] (Na2SO3 1.0 mg/mL to 1.0 μg/mL in Reagent A, 4×10^−16 mol AP, 3.5 min, room temperature) is “higher signal (S) than the control”.

As to `CCCCCCCC[P+](CCCCCCCC)(CCCCCCCC)Cc1ccc(C[P+](CCCC)(CCCC)CCCC)cc1.[Cl-].[Cl-]` [Surfactant E, 1-trioctylphosphoniummethyl-4-tributylphosphonium-methylbenzene dichloride], in experiment [1], the “Rel. (S/B normalized to the results obtained with no enhancer)” value is 11.6; the “S/B (ratio of light intensities with AP and with no enzyme)” value was determined as 162.

For the compound `CCCCCCCCCCCCOS(=O)(=O)[O-].[Na+]` [Surfactant H, sodium dodecyl sulfate], the “rise to peak signal versus control without SDS” value in experiment [2] (SDS 10 mg/mL to 10 μg/mL, 0.66 mM 5, tris pH 8.8, 4×10^−16 mol AP, room temperature) was “faster rise to peak signal”. In experiment [1], the “Rel. (S/B normalized to the results obtained with no enhancer)” value was 1.9; the “S/B (ratio of light intensities with AP and with no enzyme)” value was found to be 26.

Consider `CCCCCCCCCCCCCCCC[N+](C)(C)C.[Br-]` [Surfactant I, cetyltrimethylammonium bromide], for which, in experiment [1], the “Rel. (S/B normalized to the results obtained with no enhancer)” value was determined as 1.7; the “S/B (ratio of light intensities with AP and with no enzyme)” value stood at 24.

Turning to `CCCCCCCC[N+](CCCCCCCC)(CCCCCCCC)Cc1ccc(C[N+](CCCC)(CCCC)CCCC)cc1.[Cl-].[Cl-]` [Surfactant J, 1-trioctylammoniumnmethyl-4-tributylammoniummethylbenzene dichloride], in experiment [1], the “Rel. (S/B normalized to the results obtained with no enhancer)” value stood at 1.2; the “S/B (ratio of light intensities with AP and with no enzyme)” value amounted to 17.

As to `CN1c2ccccc2C(C(=O)Oc2ccccc2)c2ccccc21` [phenyl 10-methylacridan-9-carboxylate, reference compound], in experiment [1] (composition as Example 14 with the ester in place of 1), the “effect of addition of AP on chemiluminescence” value is recorded as “no effect”.

In the case of `O=C(O)C(O)C(O)C(=O)O` (stereo not shown) [tartrate, reference compound], in the experiment on acid phosphatase (AcP) (addition of 5 μL of 0.04 M tartrate in citrate buffer (0.09 M, pH 4.8)), the “effect on light emission (inhibition of enzyme activity)” value is recorded as “complete extinction of light emission”.

For “(E, Z)-9-(2,6-Dimethylphenoxy)phosphoryloxymethylidene)-3-chloro-10-methylacridan, disodium salt [Compound 4]”, the “S at 36 min (plateau intensity)” value in experiment [2] (setting [3]) is given as 4645.

With “(E,Z)-9-(Phenoxy)phosphoryloxymethylidene)-3-methoxy-10-methylacridan, disodium salt [Compound 3]”, the “S at 36 min (plateau intensity)” value in experiment [2] (setting [3]) amounted to 5963.

With “(E,Z)-9-(Phenoxy)phosphoryloxymethylidene)-12-methylbenz[c]acridan, disodium salt [Compound 6]”, the “S at 36 min (plateau intensity)” value in experiment [2] (setting [3]) amounted to 72.3.

“bovine serum albumin: the protein bovine serum albumin, added to the detection reagent”: the “effect on duration of light emission” value in the experiment on acid phosphatase (AcP) (added to the detection reagent at 0.1%) is listed as “prolonged the duration of light emission significantly”.

As to “polyoxyethylene(20)sorbitan monolaurate [Surfactant F]”, the “effect on duration of chemiluminescence” value in experiment [2] (TWEEN 20 1.0% to 0.001%, Reagent A with 21 μM lucigenin, lacking Na2SO3, 4×10^−16 mol AP) was “effective in extending the duration of chemiluminescence at or near maximum intensity”. For the same compound, in experiment [1], the “Rel. (S/B normalized to the results obtained with no enhancer)” value is recorded as 8.6; the “S/B (ratio of light intensities with AP and with no enzyme)” value came out at 120.

For the origin of these results see patent publication US6635437B2, “Compounds, compositions and methods for generating chemiluminescence with phosphatase enzymes” (Lumigen, Inc., priority 1996, dated 2003).
